Results from ChEMBL document CHEMBL1201862, “PubChem BioAssay data set” (2004).
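Briefly, cells in 96-well plates were exposed to five compound concentrations for 48 h, and endpoints were estimated by linear interpolation. GI50: concentration for 50% inhibition of growth.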 Calls of active or inactive are those of the source. Cut-off read from the data, not from the text of the source: active = GI50 up to about 1.1 µM and inactive = higher. Where a SMILES comes first, the peptide text is derived from it. [ ]: non-standard residue; d: D form. Hiv = CC(C)[C@H](O)C(=O)O

What was measured:
Experiment in all cases: DTP human tumour cell line panel, 48 h
HL-60 = system: HL-60
SNB-19 = system: SNB-19
NCI-H460 = system: NCI-H460
EKVX = system: EKVX
M14 = system: M14
MOLT-4 = system: MOLT-4
UACC-257 = system: UACC-257
SK-MEL-28 = system: SK-MEL-28
SF-539 = system: SF-539
RPMI-8226 = system: RPMI-8226
OVCAR-3 = system: OVCAR-3
HCT-15 = system: HCT-15
RXF 393 = system: RXF 393
NCI-H23 = system: NCI-H23
HCT-116 = system: HCT-116
SN12C = system: SN12C
KM12 = system: KM12
PC-3 = system: PC-3
SR = system: SR
CCRF-CEM = system: CCRF-CEM

SMILES	GI50 (HL-60)	GI50 (SNB-19)	GI50 (NCI-H460)	GI50 (EKVX)	GI50 (M14)	GI50 (MOLT-4)	GI50 (UACC-257)	GI50 (SK-MEL-28)	GI50 (SF-539)	GI50 (RPMI-8226)	GI50 (OVCAR-3)	GI50 (HCT-15)	GI50 (RXF 393)	GI50 (NCI-H23)	GI50 (HCT-116)	GI50 (SN12C)	GI50 (KM12)	GI50 (PC-3)	GI50 (SR)	GI50 (CCRF-CEM)
Cc1ccc(NC(=O)c2cc(S(=O)(=O)Nc3n[nH]c(=O)n3-c3ccccc3)c(S)cc2Cl)cc1	> 100 µM (inactive)	> 100 µM (inactive)	> 100 µM (inactive)	> 100 µM (inactive)	> 100 µM (inactive)	> 100 µM (inactive)	> 100 µM (inactive)	> 100 µM (inactive)	> 100 µM (inactive)	> 100 µM (inactive)	> 100 µM (inactive)	> 100 µM	> 100 µM (inactive)	> 100 µM (inactive)	> 100 µM (inactive)	> 100 µM (inactive)	> 100 µM (inactive)	> 100 µM (inactive)	> 100 µM (inactive)	–
CCN(CC)CCOc1ccccc1/C=C/c1noc2ccccc12	7.76 µM (inactive)	13.6 µM (inactive)	11.6 µM (inactive)	15.2 µM (inactive)	2.54 µM (inactive)	12.1 µM (inactive)	3.95 µM (inactive)	7.73 µM (inactive)	16 µM (inactive)	–	14.7 µM (inactive)	10.5 µM	2.75 µM (inactive)	13.9 µM (inactive)	6.22 µM (inactive)	11.5 µM (inactive)	16.4 µM (inactive)	4.89 µM (inactive)	11.7 µM (inactive)	15.2 µM (inactive)
CC(C)/C(Cl)=N/OC(=O)Nc1cccc(C(F)(F)F)c1	0.778 µM (active)	19 µM (inactive)	17.8 µM (inactive)	2.61 µM (inactive)	3.52 µM (inactive)	1.67 µM (inactive)	15.4 µM (inactive)	5.45 µM (inactive)	–	1.56 µM (inactive)	3.84 µM (inactive)	1.82 µM	5.9 µM (inactive)	14.5 µM (inactive)	8.2 µM (inactive)	7.1 µM (inactive)	15.3 µM (inactive)	16.2 µM (inactive)	1.06 µM (active)	0.532 µM (active)
COC(=O)/C(C#N)=C(/NCCN)Nc1ccccc1	> 100 µM (inactive)	> 100 µM (inactive)	> 100 µM (inactive)	> 100 µM (inactive)	> 100 µM (inactive)	> 100 µM (inactive)	> 100 µM (inactive)	> 100 µM (inactive)	> 100 µM (inactive)	> 100 µM (inactive)	> 100 µM (inactive)	> 100 µM	> 100 µM (inactive)	> 100 µM (inactive)	> 100 µM (inactive)	> 100 µM (inactive)	–	> 100 µM (inactive)	> 100 µM (inactive)	–
C=CCN(c1cc(OC)c(NC(C)=O)cc1[N+](=O)[O-])S(C)(=O)=O	> 100 µM (inactive)	> 100 µM (inactive)	> 100 µM (inactive)	> 100 µM (inactive)	> 100 µM (inactive)	> 100 µM (inactive)	> 100 µM (inactive)	> 100 µM (inactive)	–	> 100 µM (inactive)	> 100 µM (inactive)	> 100 µM	> 100 µM (inactive)	> 100 µM (inactive)	> 100 µM (inactive)	> 100 µM (inactive)	> 100 µM (inactive)	> 100 µM (inactive)	> 100 µM (inactive)	> 100 µM (inactive)
CC(C)(C)c1cc(Br)c(O)c(CN(Cc2cc(C(C)(C)C)cc(Br)c2O)C2CCCCC2)c1	17.6 µM (inactive)	14.1 µM (inactive)	–	14.8 µM (inactive)	12.9 µM (inactive)	10.4 µM (inactive)	4.14 µM (inactive)	15.5 µM (inactive)	–	11.8 µM (inactive)	11.9 µM (inactive)	12.8 µM	10.7 µM (inactive)	13.5 µM (inactive)	12.5 µM (inactive)	14.8 µM (inactive)	14.7 µM (inactive)	14.9 µM (inactive)	10.1 µM (inactive)	13.3 µM (inactive)
CC(C)[C@@H]1OC(=O)[C@@H](C)NC(=O)[C@@H]2CCCN2C1=O (cyclo([Hiv]-Pro-[dA]))	> 100 µM (inactive)	> 100 µM (inactive)	> 100 µM (inactive)	> 100 µM (inactive)	> 100 µM (inactive)	> 100 µM (inactive)	> 100 µM (inactive)	> 100 µM (inactive)	> 100 µM (inactive)	–	> 100 µM (inactive)	> 100 µM	> 100 µM (inactive)	> 100 µM (inactive)	> 100 µM (inactive)	> 100 µM (inactive)	> 100 µM (inactive)	> 100 µM (inactive)	> 100 µM (inactive)	> 100 µM (inactive)
O=C(CSCC(=O)N/N=C/c1ccc(F)cc1)N/N=C/c1ccc(F)cc1	> 100 µM (inactive)	> 100 µM (inactive)	> 100 µM (inactive)	> 100 µM (inactive)	76.6 µM (inactive)	25.2 µM (inactive)	> 100 µM (inactive)	> 100 µM (inactive)	> 100 µM (inactive)	60.8 µM (inactive)	–	> 100 µM	85.1 µM (inactive)	> 100 µM (inactive)	> 100 µM (inactive)	> 100 µM (inactive)	> 100 µM (inactive)	66.2 µM (inactive)	> 100 µM (inactive)	–
CN(C)c1ncc(-c2c[nH]c3ccccc23)nc1-c1c[nH]c2ccccc12	2.02 µM (inactive)	4.12 µM (inactive)	2.12 µM (inactive)	3.32 µM (inactive)	1.89 µM (inactive)	3.47 µM (inactive)	1.9 µM (inactive)	2.89 µM (inactive)	4.21 µM (inactive)	2.74 µM (inactive)	5.75 µM (inactive)	3.14 µM	1.96 µM (inactive)	–	3.13 µM (inactive)	2.88 µM (inactive)	2.19 µM (inactive)	3.69 µM (inactive)	3.24 µM (inactive)	–
CC(Oc1ccccc1Cl)C(=O)NN1C(=O)CC(=O)N(c2ccccc2)C1=S (centres undefined)	18.7 µM (inactive)	71.1 µM (inactive)	44.2 µM (inactive)	57.1 µM (inactive)	59 µM (inactive)	30 µM (inactive)	55.2 µM (inactive)	88.3 µM (inactive)	66.7 µM (inactive)	47.8 µM (inactive)	38 µM (inactive)	38 µM	32.1 µM (inactive)	38.1 µM (inactive)	34.9 µM (inactive)	> 100 µM (inactive)	60.1 µM (inactive)	40.8 µM (inactive)	33.3 µM (inactive)	–
CCc1c2c([nH]c(=S)c1C#N)CCC2	> 100 µM (inactive)	> 100 µM (inactive)	> 100 µM (inactive)	16.9 µM (inactive)	> 100 µM (inactive)	> 100 µM (inactive)	> 100 µM (inactive)	> 100 µM (inactive)	–	> 100 µM (inactive)	> 100 µM (inactive)	> 100 µM	> 100 µM (inactive)	> 100 µM (inactive)	> 100 µM (inactive)	–	> 100 µM (inactive)	> 100 µM (inactive)	74.5 µM (inactive)	48.8 µM (inactive)
